Data on 1 compound can be found in ChEMBL document CHEMBL5108084, “Discovery of Novel Pyrazolylpyridine Derivatives for 20-Hydroxyeicosatetraenoic Acid Synthase Inhibitors with Selective CYP4A11/4F2 Inhibition” (J Med Chem, 2022).

Converted amounts (≈) assume the structure as drawn.

Data set [1] can be described thus: Apparent permeability of the compound at pH 5 measured after 4 hrs by PAMPA assay. In kind it is ADME. (PAMPA measures passive passage across an artificial lipid membrane.)
For data set [2], the target named is CYP2C19 (Homo sapiens, UniProt P33261). Nature of the data set: Inhibition of CYP2C19 in human liver microsomes at 10 uM using mephenytoin as substrate preincubated for 5 mins followed by NADPH generating system addition and measured after 5 to 10 mins by LC-MS/MS analysis. The following applies: probe mephenytoin, time 10-15 min. Format: ADME, Microsome. Background: Liver microsomes are a subcellular fraction often used to study metabolism.

Data set [3] deals with T1, CYP2C8 (Homo sapiens, UniProt P10632).
T1 sequence (P10632 whole entry): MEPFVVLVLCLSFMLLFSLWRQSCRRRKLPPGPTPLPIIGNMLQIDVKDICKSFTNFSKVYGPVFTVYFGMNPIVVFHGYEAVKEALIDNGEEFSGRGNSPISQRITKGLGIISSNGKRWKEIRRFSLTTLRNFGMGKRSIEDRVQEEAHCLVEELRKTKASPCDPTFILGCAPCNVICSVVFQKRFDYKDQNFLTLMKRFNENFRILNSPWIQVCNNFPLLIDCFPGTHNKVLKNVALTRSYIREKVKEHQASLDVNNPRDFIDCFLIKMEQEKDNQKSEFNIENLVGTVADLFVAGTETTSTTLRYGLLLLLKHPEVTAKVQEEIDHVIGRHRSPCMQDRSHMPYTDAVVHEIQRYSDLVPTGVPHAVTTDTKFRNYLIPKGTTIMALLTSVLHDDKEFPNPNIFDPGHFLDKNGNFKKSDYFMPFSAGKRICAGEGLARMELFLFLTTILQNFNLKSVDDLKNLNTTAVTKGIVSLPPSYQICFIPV
The data set is described as follows: Inhibition of CYP2C8 in human liver microsomes at 10 uM using amodiaquine as substrate preincubated for 5 mins followed by NADPH generating system addition and measured after 5 to 10 mins by LC-MS/MS analysis. The following applies: probe amodiaquine, time 10-15 min. In kind it is ADME, Microsome.

A short description of data set [4]: In vivo inhibition of CYP4A11/4F2 in Sprague-Dawley rat assessed as reduction in 20-HETE levels in kidney at 0.1 mg/kg, po measured after 8 hrs by LC-MS/MS analysis. In kind it is functional.
Data set [5] can be described thus: Drug concentration in Sprague-Dawley rat kidney at 1 mg/kg, po by LC-MS/MS analysis. Format: ADME, organism-based. Conditions: in vivo.
Data set [6] concerns the target CYP2D6 (Homo sapiens, UniProt P10635). The data set is described as follows: Inhibition of CYP2D6 in human liver microsomes at 10 uM using bufuralol as substrate preincubated for 5 mins followed by NADPH generating system addition and measured after 5 to 10 mins by LC-MS/MS analysis. In kind it is ADME, Microsome. Conditions: probe bufuralol, time 10-15 min.
Data set [7] addresses CYP3A4 (Homo sapiens, UniProt P08684). The data set is described as follows: Inhibition of CYP3A4 in human liver microsomes using testosterone as substrate at 10 uM preincubated for 5 mins followed by NADPH generating system addition and measured after 5 to 10 mins by LC-MS/MS analysis. Conditions: probe testosterone, time 10-15 min. Format: ADME, Microsome.
Data set [8] is described as follows: Thermodynamic solubility of the compound in phosphate buffer at pH 6.8 incubated for 24 hrs by HPLC analysis. In kind it is physicochemical. Conditions: read-out: Therm_solubility.
The nature of data set [9]: Half life in Balb/cA mouse at 0.5 mg/kg, iv measured for 24 hrs by LC-MS/MS analysis. The following applies: in vivo, iv, 0.5 mg/kg, 24 h. Format: ADME, organism-based.
The nature of data set [10]: In vivo inhibition of CYP4A11/4F2 in Sprague-Dawley rat assessed as reduction in 20-HETE levels in kidney at 0.3 mg/kg, po measured after 8 hrs by LC-MS/MS analysis. Format: functional.
Data set [11] in a line: In vivo inhibition of CYP4A11/4F2 in Sprague-Dawley rat assessed as reduction in 20-HETE levels in kidney at 0.03 mg/kg, po measured after 8 hrs by LC-MS/MS analysis. In kind it is functional.

Chain of CYP3A4 (P08684 whole entry): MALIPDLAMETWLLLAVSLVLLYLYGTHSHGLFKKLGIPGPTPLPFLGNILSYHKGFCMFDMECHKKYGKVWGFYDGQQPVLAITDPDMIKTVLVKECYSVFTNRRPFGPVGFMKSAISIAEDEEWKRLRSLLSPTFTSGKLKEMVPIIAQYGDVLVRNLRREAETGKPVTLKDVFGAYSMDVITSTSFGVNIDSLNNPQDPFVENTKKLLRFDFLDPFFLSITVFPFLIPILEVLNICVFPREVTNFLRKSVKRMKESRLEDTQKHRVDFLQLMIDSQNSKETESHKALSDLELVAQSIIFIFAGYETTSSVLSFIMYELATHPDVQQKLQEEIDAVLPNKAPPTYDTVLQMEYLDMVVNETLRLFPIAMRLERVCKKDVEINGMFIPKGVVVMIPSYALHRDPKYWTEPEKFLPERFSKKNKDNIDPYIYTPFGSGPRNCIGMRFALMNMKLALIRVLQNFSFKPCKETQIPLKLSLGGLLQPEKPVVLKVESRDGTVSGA
Chain of CYP2C19 (P33261 whole entry): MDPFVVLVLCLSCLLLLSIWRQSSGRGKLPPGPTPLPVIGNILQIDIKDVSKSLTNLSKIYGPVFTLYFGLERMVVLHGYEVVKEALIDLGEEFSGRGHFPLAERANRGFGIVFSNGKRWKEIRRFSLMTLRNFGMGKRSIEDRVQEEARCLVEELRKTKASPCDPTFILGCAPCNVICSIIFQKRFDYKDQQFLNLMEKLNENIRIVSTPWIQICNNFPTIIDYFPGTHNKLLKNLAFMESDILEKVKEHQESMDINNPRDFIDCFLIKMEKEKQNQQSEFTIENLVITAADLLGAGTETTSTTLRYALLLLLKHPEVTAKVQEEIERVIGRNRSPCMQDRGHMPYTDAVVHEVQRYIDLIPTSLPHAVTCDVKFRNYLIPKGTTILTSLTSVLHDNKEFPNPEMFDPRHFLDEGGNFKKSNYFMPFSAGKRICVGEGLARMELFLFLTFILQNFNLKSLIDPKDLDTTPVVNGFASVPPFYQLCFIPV
Chain of CYP2D6 (P10635 whole entry): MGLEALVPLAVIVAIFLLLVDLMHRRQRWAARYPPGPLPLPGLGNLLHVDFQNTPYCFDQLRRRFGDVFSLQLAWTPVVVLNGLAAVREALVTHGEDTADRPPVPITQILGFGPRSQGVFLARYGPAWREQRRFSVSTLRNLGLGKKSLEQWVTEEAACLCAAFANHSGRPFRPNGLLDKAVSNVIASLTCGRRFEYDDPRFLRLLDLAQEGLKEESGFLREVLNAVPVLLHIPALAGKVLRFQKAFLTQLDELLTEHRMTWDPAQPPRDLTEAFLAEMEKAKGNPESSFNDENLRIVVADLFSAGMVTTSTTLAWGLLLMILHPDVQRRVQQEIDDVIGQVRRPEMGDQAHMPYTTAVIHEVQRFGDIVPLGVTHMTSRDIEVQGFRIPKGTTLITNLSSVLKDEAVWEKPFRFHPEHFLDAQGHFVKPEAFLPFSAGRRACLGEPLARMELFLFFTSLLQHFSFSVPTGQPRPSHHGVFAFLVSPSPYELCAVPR

With `CC(=O)N1CCC(COc2ccc(-c3ccn[nH]3)nc2)CC1`, in data set [1], the Papp at 4 h came out at 15 ×10⁻⁶ cm/s. In addition, the inhibition at 10 µM was -6.4% in data set [2], 1.5% in data set [3], -5.7% in data set [6] and -4.7% in [7]. The inhibition in vivo at 0.1 mg/kg in data set [4] turned out to be 63%. Also, the Ct in [5] was found to be 1570 ng/g. The solubility thermodynamic at 24 h in data set [8] was 112 µg/mL (≈ 373 µM). The same compound came in with a t1/2 in [9] of 4.66 h. Also, the inhibition in vivo at 0.3 mg/kg in data set [10] worked out at 76%. For the same compound, the inhibition in vivo at 0.03 mg/kg in [11] amounted to 42%.

By Papp is commonly meant a coefficient for how fast a substance crosses the barrier. In general, inhibition refers to the drop in the measured response relative to a control, in per cent. What is called inhibition in vivo is the relative decrease from the control value, in per cent.
